Experimental findings from US20160244718A1, “REPROGRAMMING OF PLURIPOTENT STEM CELLS FOR IMPROVED CONTROL OF THEIR DIFFERENTIATION PATHWAYS” (ETH ZURICH, priority 2013, published 2016) are described below.

The assay deals with pPSCs (cESCs d7) and PSCs (WT ESCs). The assay is described as follows: Cardiogenic differentiation induced by icariin, Real-Time PCR of cardiogenic markers. The class given is cell-based, mouse. The settings on record: 12 days stimulation with icariin (d7 to d7+12), RNA isolated every 4 days, normalized to Gapdh; pPSCs compared with PSCs. How it is done: Total RNA was isolated from ˜1×10^6 cells per sample using the RNeasy Plus Mini Kit (Qiagen, Hombrechtikon, Switzerland) with RNase-free DNase treatment (Qiagen) following the manufacturer's protocol. For reverse transcription (RT) 2 μg total RNA was reverse transcribed into cDNA in a reaction volume of 20 μl using the iScript™ Advanced cDNA Synthesis Kit (Bio-Rad). Each RT reaction mix contained 4 μl 5× iScript advanced reaction mix and 1 μl iScript advanced reverse transcriptase. The 20 μl reactions were incubated at 42° C. for 30 min, at 85° C. for 5 min, and then held at 4° C. Real-Time PCR reactions were performed on the resulting cDNA using the CFX Connect™ Real-Time PCR Detection System (Bio-Rad), SsoAdvanced™ SYBR® Green Supermix (Bio-Rad) and Hard-Shell® Low-Profile Thin-Wall 96-Well Skirted PCR Plates (Bio-Rad). Briefly, following the RT step, 5 μl of the 100fold-diluted RT reaction was combined with 15 μl mastermix (2× SsoAdvanced™ SYBR® Green Supermix, forward primer, reverse primer and nuclease-free water) in a 20 μl final volume. PCR reactions were incubated at 95° C. for 3 min, followed by 39 cycles of 95° C. for 10 s and 62° C. for 30 s; and were run as duplicates of two independent experiments. […] Results were analyzed using CFX Manager™ software (Bio-Rad) and mRNA expression levels relative to Gapdh were calculated based on the AACt method. […]
On the technique in general: Quantitative PCR measures a nucleic acid by following its amplification.

For `COc1ccc(-c2oc3c(CC=C(C)C)c(O[C@@H]4O[C@H](CO)[C@@H](O)[C@H](O)[C@H]4O)cc(O)c3c(=O)c2O[C@@H]2O[C@@H](C)[C@H](O)[C@@H](O)[C@H]2O)cc1` [icariin], the “mRNA expression of all tested cardiogenic markers” value is “induced higher in pPSCs than in PSCs”.
